Results reported in article PMC5486949 (SLAS discovery, 2017).

How the values were obtained:
Format in all cases: cell-based, human
[1] = test system: ERR cell line (HEK293T); assay: Cell viability assay multiplexed with ERR antagonist mode assay; settings: Homo sapiens, HEK-293T, read-out: ERRα (Viability) IC50
[2] = test system: PGC-1α/ERRα; assay: PGC/ERR luciferase reporter gene assay, antagonist mode; settings: Homo sapiens
[3] = test system: PGC/ERR cell line (HEK293T); assay: Cell viability assay multiplexed with PGC/ERR antagonist mode assay; settings: Homo sapiens, HEK-293T, read-out: PGC-1α/ERRα (Viability) IC50

`C=C(C)[C@H]1Cc2c(ccc3c2O[C@@H]2COc4cc(OC)c(OC)cc4[C@@H]2C3=O)O1` [Rotenone] was tested, and the IC50 [1] was 1330 nM, the AC50 ([2]; read-out: AC50 PGC/ERR ↓) was 74.1 nM and the IC50 ([2]; read-out: PGC-1α/ERRα (Antagonist) IC50) was 40 nM. It also gave an IC50 [3] of 6680 nM.
